Experiments:
[1] = system: NCI-H522; assay: NCI-60 SRB growth assay; format: cell-based, human; details: for GI50: NCI-H522; for TGI: NCI–H522
[2] = system: SR; assay: NCI-60 SRB growth assay; format: cell-based, human; details: for GI50 / CC50: Homo sapiens; for CC50: read-out: LC50
[3] = system: M14; assay: NCI-60 SRB growth assay; format: cell-based, human; details: for GI50 / CC50: Homo sapiens; for GI50 / TGI: M14; for CC50: M14, read-out: LC50
[4] = system: OVCAR-3; assay: NCI-60 SRB growth assay; format: cell-based, human; details: for GI50 / CC50: Homo sapiens; for GI50 / TGI: OVCAR-3; for CC50: OVCAR-3, read-out: LC50
[5] = system: MDA-MB-231/ATCC; assay: NCI-60 SRB growth assay; format: cell-based, human; details: for GI50 / CC50: Homo sapiens; for GI50 / TGI: MDA-MB-231; for CC50: MDA-MB-231, read-out: LC50
[6] = system: MDA-MB-435; assay: NCI-60 SRB growth assay; format: cell-based, human; details: for GI50 / CC50: Homo sapiens; for GI50 / TGI: MDA-MB-435; for CC50: MDA-MB-435, read-out: LC50
[7] = system: OVCAR-5; assay: NCI-60 SRB growth assay; format: cell-based, human; details: for GI50 / CC50: Homo sapiens; for GI50 / TGI: OVCAR-5; for CC50: OVCAR-5, read-out: LC50
[8] = system: HCT-15; assay: NCI-60 SRB growth assay; format: cell-based, human; details: for TGI / GI50: HCT-15; for GI50 / CC50: Homo sapiens; for CC50: HCT-15, read-out: LC50
[9] = system: SF-295; assay: NCI-60 SRB growth assay; format: cell-based, human; details: for GI50: SF-295; for TGI: SF-265
[10] = system: KM12; assay: NCI-60 SRB growth assay; format: cell-based, human; details: for GI50 / CC50: Homo sapiens; for GI50 / TGI: KM12; for CC50: KM12, read-out: LC50
[11] = system: IGROV1; assay: NCI-60 SRB growth assay; format: cell-based, human; details: for GI50: IGROV-1; for TGI: IGROV1
[12] = system: UACC-257; assay: NCI-60 SRB growth assay; format: cell-based, human; details: for GI50 / CC50: Homo sapiens; for GI50 / TGI: UACC-257; for CC50: UACC-257, read-out: LC50
[13] = system: NIH3T3; assay: MTT cytotoxicity assay; format: cell-based; details: Mus musculus, NIH3T3, 48 h
[14] = system: HOP-92; assay: NCI-60 SRB growth assay; format: cell-based, human; details: for TGI / GI50: HOP-92; for GI50 / CC50: Homo sapiens; for CC50: HOP-92, read-out: LC50
[15] = system: oligo-1: d(CGCGAATTCGCG)2; assay: UV thermal denaturation; format: binding
[16] = system: 786-0; assay: NCI-60 SRB growth assay; format: cell-based, human; details: for TGI: 786–0; for GI50 / CC50: Homo sapiens; for GI50: 786-0; for CC50: 786-0, read-out: LC50
[17] = system: HCT-116; assay: NCI-60 SRB growth assay; format: cell-based, human; details: for TGI / GI50: HCT-116; for GI50 / CC50: Homo sapiens; for CC50: HCT-116, read-out: LC50
[18] = system: oligo-1: d(CGCGAATTCGCG)2; assay: Fluorescence titration; format: binding; details: 20 °C, pH 7.2
[19] = system: A498; assay: NCI-60 SRB growth assay; format: cell-based, human; details: for TGI / GI50: A498; for GI50 / CC50: Homo sapiens; for CC50: A498, read-out: LC50
[20] = system: ACHN; assay: NCI-60 SRB growth assay; format: cell-based, human; details: for GI50 / CC50: Homo sapiens; for CC50: read-out: LC50
[21] = target: T1, Hu Topo I (Homo sapiens, UniProt P11387); assay: Plasmid DNA relaxation assay
T1 sequence (P11387 1-765): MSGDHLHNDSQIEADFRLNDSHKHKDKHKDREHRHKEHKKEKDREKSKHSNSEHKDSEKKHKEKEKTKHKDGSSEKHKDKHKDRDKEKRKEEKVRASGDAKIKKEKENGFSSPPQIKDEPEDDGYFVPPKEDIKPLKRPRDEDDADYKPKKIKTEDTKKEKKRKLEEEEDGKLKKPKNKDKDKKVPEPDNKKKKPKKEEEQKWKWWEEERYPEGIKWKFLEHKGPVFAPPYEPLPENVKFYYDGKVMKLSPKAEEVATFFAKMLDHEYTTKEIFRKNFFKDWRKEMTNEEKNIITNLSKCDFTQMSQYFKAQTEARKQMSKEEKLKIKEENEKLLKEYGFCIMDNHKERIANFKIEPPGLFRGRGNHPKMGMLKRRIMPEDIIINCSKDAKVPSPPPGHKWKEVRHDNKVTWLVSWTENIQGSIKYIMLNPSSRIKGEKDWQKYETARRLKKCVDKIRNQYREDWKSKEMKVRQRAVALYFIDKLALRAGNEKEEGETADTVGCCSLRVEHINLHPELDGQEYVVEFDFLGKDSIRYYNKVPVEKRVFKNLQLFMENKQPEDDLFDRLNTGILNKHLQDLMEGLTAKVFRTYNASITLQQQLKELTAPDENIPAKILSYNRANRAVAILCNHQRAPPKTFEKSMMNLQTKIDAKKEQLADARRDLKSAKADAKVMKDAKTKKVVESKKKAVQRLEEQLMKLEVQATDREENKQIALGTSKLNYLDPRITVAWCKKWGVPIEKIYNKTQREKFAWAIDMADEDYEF

[22] = system: oligo-2: d(CGATGTACATCG)2; assay: UV thermal denaturation; format: binding
[23] = system: DU-145; assay: NCI-60 SRB growth assay; format: cell-based, human; details: for TGI / GI50: DU-145; for GI50 / CC50: Homo sapiens; for CC50: DU-145, read-out: LC50
[24] = system: HL-60(TB); assay: cells; details: Homo sapiens; for GI50: HL-60; for CC50: HL-60, read-out: LC50

Work on CCCN1CCN(c2ccc3[nH]c(-c4ccc5[nH]c(-c6ccc(OCC)c(OCC)c6)nc5c4)nc3c2)CC1 [11a, 2-(2-(3,4-Diethoxyphenyl)-1H-benzo[d]imidazol-5-yl)-5-(4-propylpiperazin-1-yl)-1H-benzo[d]imidazole] yielded a GI50 ([1]; Homo sapiens) of 450 nM, a TGI [1] of 2.11 µM and a GI50 [2] of 290 nM. The CC50 [2] was > 100 µM, the GI50 [3] was 250 nM and the CC50 [3] was 5 µM. It also gave a TGI [3] of 1.5 µM, a GI50 [4] of 260 nM and a CC50 [4] of 1800 nM. It also gave a TGI [4] of 0.58 µM, a GI50 [5] of 1380 nM and a CC50 [5] of 6.78 µM. The TGI [5] was 3.06 µM, the GI50 [6] was 670 nM and the CC50 [6] was 4.5 µM. The TGI [6] was 1.9 µM, the GI50 [7] was 2090 nM and the CC50 [7] was 15.9 µM. For the same compound, the TGI [7] was 5.01 µM, the TGI [8] was 18.9 µM and the GI50 [8] was 2420 nM. The CC50 [8] was > 100 µM, the GI50 ([9]; Homo sapiens) was 500 nM and the CC50 ([9]; Homo sapiens, SF-295, read-out: LC50) was 7.8 µM. It also gave a TGI [9] of 2.3 µM, a GI50 [10] of 1260 nM and a CC50 [10] of 6.4 µM. The TGI [10] was 2.8 µM, the GI50 ([11]; Homo sapiens) was 760 nM and the CC50 ([11]; Homo sapiens, IGROV-1, read-out: LC50) was 37.8 µM. For the same compound, the TGI [11] was 4.1 µM, the GI50 [12] was 790 nM and the CC50 [12] was 9.4 µM. It also gave a TGI [12] of 2.8 µM, an IC50 [13] of 2.3 µM and a TGI [14] of 4.5 µM. The GI50 [14] was 1200 nM, the CC50 [14] was 26.3 µM and the ΔTm ([15]; r = 0.5) was 3 °C. For the same compound, the Tm ([15]; r = 0.5, oligo 2.5 μM) was 57.7 °C, the Tm ([15]; r = 1) was 58.7 °C and the ΔTm ([15]; r = 1) was 4 °C. It also gave a Tm ([15]; r = 1.5) of 60.7 °C, a ΔTm ([15]; r = 1.5) of 6 °C and a Tm ([15]; r = 2.0) of 62.7 °C. For the same compound, the ΔTm ([15]; r = 2.0) was 8 °C, the TGI [16] was 2.50 µM and the GI50 [16] was 1130 nM. For the same compound, the CC50 [16] was 5.54 µM, the TGI [17] was 1.23 µM and the GI50 [17] was 240 nM. The CC50 [17] was 4.7 µM, the “Ka binding affinity with oligo-1” value [18] was 3 × 10^7 M^–1 and the TGI [19] was 1.79 µM. The GI50 [19] was 470 nM, the CC50 [19] was 4.38 µM and the TGI [20] was 2.1 µM. It also gave a GI50 [20] of 820 nM, a CC50 [20] of 4.77 µM and an IC90 [21] of 140 µM. The Tm ([22]; r = 0.5, oligo 2.5 μM) was 57.9 °C, the Tm ([22]; r = 1) was 58.9 °C and the ΔTm ([22]; r = 1) was 2 °C. It also gave a Tm ([22]; r = 1.5) of 58.9 °C, a ΔTm ([22]; r = 1.5) of 2 °C and a ΔTm ([22]; r = 2.0) of 2 °C. The TGI [23] was 2.02 µM, the GI50 [23] was 440 nM and the CC50 [23] was 12.4 µM. The GI50 [24] was 370 nM and the CC50 [24] was > 100 µM.
For CCCCN1CCN(c2ccc3[nH]c(-c4ccc5[nH]c(-c6ccc(OCC)c(OCC)c6)nc5c4)nc3c2)CC1 [12a, 5-(4-Butylpiperazin-1-yl)-2-(2-(3,4-diethoxyphenyl)-1H-benzo[d]imidazol-5-yl)-1H-benzo[d]imidazole], the GI50 ([1]; Homo sapiens) was 1200 nM, the CC50 ([1]; Homo sapiens, NCI-H522, read-out: LC50) was > 100 µM and the TGI [1] was 3.97 µM. For the same compound, the TGI [2] was 1.19 µM, the GI50 [2] was 310 nM and the CC50 [2] was > 100 µM. The GI50 [3] was 310 nM, the CC50 [3] was 4.68 µM and the TGI [3] was 1.55 µM. It also gave a GI50 [4] of 350 nM, a CC50 [4] of 2920 nM and a TGI [4] of 0.85 µM. For the same compound, the GI50 [5] was 1690 nM, the CC50 [5] was 6.38 µM and the TGI [5] was 3.28 µM. The GI50 [6] was 1090 nM, the CC50 [6] was 5.24 µM and the TGI [6] was 2.39 µM. The GI50 [7] was 1900 nM, the CC50 [7] was 6.08 µM and the TGI [7] was 3.40 µM. For the same compound, the TGI [8] was 3.32 µM, the GI50 [8] was 1560 nM and the CC50 [8] was 7.05 µM. The GI50 ([9]; Homo sapiens) was 700 nM, the TGI [9] was 2.26 µM and the GI50 [10] was 1420 nM. The CC50 [10] was 6.28 µM, the TGI [10] was 2.99 µM and the GI50 ([11]; Homo sapiens) was 1150 nM. For the same compound, the TGI [11] was 2.60 µM, the GI50 [12] was 1210 nM and the CC50 [12] was > 100 µM. The TGI [12] was 10.5 µM, the IC50 [13] was 8.2 µM and the TGI [14] was 3.17 µM. The GI50 [14] was 1230 nM, the CC50 [14] was 8.15 µM and the ΔTm ([15]; r = 0.5) was 2 °C. The Tm ([15]; r = 0.5, oligo 2.5 μM) was 56.7 °C, the Tm ([15]; r = 1) was 57.7 °C and the ΔTm ([15]; r = 1) was 3 °C. It also gave a Tm ([15]; r = 1.5) of 58.7 °C, a ΔTm ([15]; r = 1.5) of 4 °C and a Tm ([15]; r = 2.0) of 61.7 °C. It also gave a ΔTm ([15]; r = 2.0) of 7 °C, a TGI [16] of 2.84 µM and a GI50 [16] of 1410 nM. It also gave a CC50 [16] of 5.72 µM, a TGI [17] of 1.66 µM and a GI50 [17] of 430 nM. The CC50 [17] was 4.3 µM, the “Ka binding affinity with oligo-1” value [18] was 1 × 10^7 M^–1 and the TGI [19] was 2.47 µM. The GI50 [19] was 1180 nM, the CC50 [19] was 5.16 µM and the TGI [20] was 2.12 µM. The GI50 [20] was 920 nM, the CC50 [20] was 4.65 µM and the IC90 [21] was 152 µM. For the same compound, the ΔTm ([22]; r = 0.5) was 1 °C, the Tm ([22]; r = 0.5, oligo 2.5 μM) was 57.9 °C and the Tm ([22]; r = 1) was 58.9 °C. The ΔTm ([22]; r = 1) was 2 °C, the Tm ([22]; r = 1.5) was 58.9 °C and the ΔTm ([22]; r = 1.5) was 2 °C. For the same compound, the Tm ([22]; r = 2.0) was 59.9 °C, the ΔTm ([22]; r = 2.0) was 3 °C and the TGI [23] was 2.21 µM. For the same compound, the GI50 [23] was 1000 nM, the CC50 [23] was 4.88 µM and the GI50 [24] was 700 nM. It also gave a CC50 [24] of 67.9 µM.

From paper PMC8793051 (ACS Omega, 2022)
